Results: PubChem BioAssay AID651962 (The Scripps Research Institute Molecular Screening Center, 2012)
Active and inactive are the calls of the source. How the calls were made is not given here.

biological target: Receptor-interacting serine/threonine-protein kinase 2 (Homo sapiens) (UniProt O43353); test: NOD2-RIPK2 binding disruptor potency, late-stage follow-up, cell-based, fluorescence (AID 651962); conditions: cell-based NOD2-RIPK2 interaction, fluorescence read-out
Sequence (O43353 whole entry, looked up): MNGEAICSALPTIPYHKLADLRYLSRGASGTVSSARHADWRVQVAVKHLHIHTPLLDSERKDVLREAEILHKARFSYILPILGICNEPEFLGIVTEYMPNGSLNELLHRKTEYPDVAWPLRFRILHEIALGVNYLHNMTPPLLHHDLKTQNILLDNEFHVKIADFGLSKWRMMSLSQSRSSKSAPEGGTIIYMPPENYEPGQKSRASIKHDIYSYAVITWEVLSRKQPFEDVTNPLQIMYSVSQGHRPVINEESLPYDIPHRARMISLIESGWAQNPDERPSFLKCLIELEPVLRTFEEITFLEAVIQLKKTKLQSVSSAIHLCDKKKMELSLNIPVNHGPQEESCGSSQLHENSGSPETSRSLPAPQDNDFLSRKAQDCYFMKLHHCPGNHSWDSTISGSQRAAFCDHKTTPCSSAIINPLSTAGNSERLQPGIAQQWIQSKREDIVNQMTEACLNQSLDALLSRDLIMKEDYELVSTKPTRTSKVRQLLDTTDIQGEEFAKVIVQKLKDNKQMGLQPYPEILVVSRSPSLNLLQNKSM

Row | Compound | IC50
1 | O=[N+]([O-])c1cccc(S(=O)(=O)N2CCCCCC2)c1 | > 49.8 µM (inactive)
2 | O=S(=O)(c1ccc(F)cc1)N1CCCCCC1 | > 49.8 µM (inactive)
3 | O=S(=O)(c1ccccc1)N1CCCCCC1 | > 49.8 µM (inactive)
4 | Cc1ccc(S(=O)(=O)N2CCCCCC2)cc1[N+](=O)[O-] | > 49.8 µM (inactive)
5 | COc1ccc(C(C[N+](=O)[O-])n2nc(C)cc2C)cc1 (stereo unspecified) | 3.81 µM
6 | O=[N+]([O-])c1cc(S(=O)(=O)N2CCCCCC2)ccc1F | 8.04 µM

Results, then the compound that gave them:

Row | IC50 | Compound
7 | 2.97 µM | Cc1ccc(C(C[N+](=O)[O-])n2nc(C)cc2C)cc1 (stereo unspecified)
8 | > 49.8 µM (inactive) | Cc1cc(S(=O)(=O)N2CCCCCC2)ccc1F
9 | inactive | Cc1nc([N+](=O)[O-])c(Br)n1Cc1ccc(Cl)c(Cl)c1
10 | > 49.8 µM (inactive) | Cc1ncc([N+](=O)[O-])n1Cc1ccc(Cl)c(Cl)c1
11 | inactive | Cc1nc([N+](=O)[O-])c(Br)n1Cc1ccccc1
